Results: patent US11007271B2, “Anticancer drug conjugates” (Ariel Scientific Innovations Ltd., priority 2016, dated 2021)
Entries after “also recorded” stand apart in the source; their conditions may differ.

Legend:
[1] = tested on: PC-3 (human prostate cancer); test: XTT cell growth assay, PC-3; type: cell-based; conditions: PC-3 cells; 5 to 25 μM; 24 and 48 hours incubation
Experimental: (§1) The tumors cell lines used in this study included PC-3 (human prostate cancer), WM-266-4 cell (human metastatic melanoma), MDA-MB 231 (human breast cancer) and A172 (glioblastoma). […] The benign fibroblasts were tolerable to this conjugate, accentuating its potential as anticancer candidate. At the end of the culture period, cell growth was estimated by XTT assay. After 4 hours incubation of the cells with the XTT reagent, optical density (OD) of the reduced XTT product was then measured at 480 and 680 nm. Percentage of growth inhibition by a test compound was calculated by comparison of the treated culture versus a control culture (free of any compound). The result shown for each concentration point represents the mean+/−standard error calculated from 3 different experiments. In each experiment the compounds were tested in triplicates.

[2] = tested on: MDA-MB 231 (human breast cancer); test: XTT cell growth assay, MDA-MB 231; type: cell-based; conditions: MDA-MB 231 cells; 5 to 25 μM; 24 hours incubation (FIGS. 1E, 1F)
Experimental: as §1

[3] = tested on: WM-266.4 human melanoma xenograft; test: Experiment 2: human melanoma model mice, IP injection 3 times a week; type: in vivo; conditions: for WM-266.4 cell proliferation (tumor size) in vivo: IP 3 times a week
Experimental: (§2) In another experiment (Experiment 2), 13 human melanoma model mice were treated 3 times a week by IP injection with of Chimera 358 followed by 2 days of observation according to the following groups: 3 control mice received saline, 5 mice with 5 mg and 5 mice with 10 mg. The treatment was started two weeks after grafting, when tumor development has started.

[4] = Body weight monitoring, Experiment 2; type: in vivo, mice; conditions: 5 mg group; IP 3 times a week
Experimental: as §2
FIG. 7 presents the results of the body weight monitoring of 13 mice that undergone the treatment described in Experiment 2.

[5] = Body weight monitoring, Experiment 1; type: in vivo, mice; conditions: 25 mg group; IP daily for 7 days
Experimental: (§3) In one experiment (Experiment 1), 14 human melanoma model mice (immune-deficient xenograft) were treated daily for 7 days by IP injection with of Chimera 358 followed by 2 days of observation according to the following groups: 4 control mice treated with saline, 5 mice treated with 25 mg and 5 mice treated with 10 mg.
FIG. 6 presents the results of the body weight monitoring of 14 mice that undergone the treatment described in Experiment 1.

[6] = tested on: benign fibroblasts; test: In vitro cytotoxicity on benign fibroblasts; type: cell-based
Experimental: as §1

[7] = tested on: WM-266.4 human melanoma xenograft; test: Experiment 1: human melanoma model mice, daily IP injection for 7 days; type: in vivo
Experimental: as §3

[8] = tested on: WM-266-4 cell (human metastatic melanoma); test: XTT cell growth assay, WM-266-4; type: cell-based; conditions: WM-266-4 cells; 5 to 25 μM; 24 and 48 hours incubation
Experimental: as §1

[9] = tested on: primary fibroblast (FB) cells; test: Annexin V-FITC/PI flow cytometry detection of apoptotic/necrotic stages, fibroblasts; type: cell-based; conditions: 10 μM, compared to cancer cells
Experimental: Detection of apoptotic/necrotic stages of tumor cells was examined by Annexin V-FITC/PI apoptosis detection kit (MEBCYTO). Viable cells are negative for staining of either Annexin V or PI. Early apoptotic stage indicated with positive Annexin V and negative PI, whereas late-apoptotic and necrotic stages characterized by high PI signal.
FIGS. 3A-C present flow cytometry analysis of fibroblast cells treated with 10 μM of chimera 358 for 2 hours (FIG. 3A), 4 hours (FIG. 3B) and 8 hours (FIG. 3C), showing detection of apoptotic/necrotic stages of the cells.

[10] = tested on: A172 (glioblastoma); test: XTT cell growth assay, A172; type: cell-based; conditions: A172 cells; 5 to 25 μM
Experimental: as §1

## CN(C)CCN1C(=O)c2cccc3cc(NC(=O)CCCc4ccc(N(CCCl)CCCl)cc4)cc(c23)C1=O [Chimera 358, 4-(4-(bis(2-chloroethyl)amino)phenyl)-N-(2-(2-(dimethylamino)ethyl)-1,3-dioxo-2,3-dihydro-1H-benzo[de]isoquinolin-5-yl)butanamide]
[1]
  inhibition of cancer cell growth / cell viability (XTT): remarkable inhibition of cancer cell growth; also recorded: notable cell toxicity
[2]
  inhibition of cancer cell growth / cell viability (XTT): remarkable inhibition of cancer cell growth; also recorded: notable cell toxicity
[3]; 5 mg group
  WM-266.4 cell proliferation (tumor size) in vivo: kept growing
[3]; 10 mg group (5 mice), IP three times weekly
  survival: one mouse
[3]; 10 mg group
  WM-266.4 cell proliferation (tumor size) in vivo: grew to a much lesser extent
[4]
  body weight: maintained their body weight
[5]
  body weight: loss of body weight
[6]
  effect on benign fibroblasts: tolerable
[7]; 10 mg group (5 mice), IP daily for 7 days
  survival: one mouse
[7]; 10 mg group, after four weeks of the treatment
  WM-266.4 cell proliferation (tumor size) in vivo: notable decrease in tumor size
[7]; mice receiving the treatment (25 mg, 10 mg) versus saline control
  WM-266.4 cell proliferation (tumor size) in vivo: grew to a much lesser extent
[8]
  inhibition of cancer cell growth / cell viability (XTT): remarkable inhibition of cancer cell growth; also recorded: notable cell toxicity
[9]
  cell death (apoptotic/necrotic stages): moderate
[10]
  inhibition of cancer cell growth (XTT): remarkable inhibition of cancer cell growth
